Results on 28 molecules are retold here after patent US20240018163A1, “NEW THIAZOLOPYRIMIDINONE DERIVATIVES” (Hoffmann-La Roche Inc., priority 2021, published 2024).

In the test the test system is mutant HTT protein (mHTT). Briefly: Homogeneous Time Resolved Fluorescence (HTRF) assay for HTT lowering. The note with it: reduction of mHTT in Huntington patient human cells (GENEAe020-A cell line), 48 hours incubation, mean from three replicates. The format is cell-based. As to the method:
Homogeneous Time Resolved Fluorescence for HTT lowering
The HTRF assay was adapted from Weiss et al. (Analytical Biochemistry Volume 395, Issue 1, 1 Dec. 2009, Pages 8-15 and Analytical Biochemistry Volume 410, 2011, Pages 304-306) to cells from GENEAe020-A cell line (https://hpscreg.eu/cell-line/GENEAe020-A).
Compounds were tested for the effect of mutant HTT levels in Huntington patient human cells (GENEAe020-A cell line) using Homogeneous Time Resolved Fluorescence (HTRF) directed towards mutant HTT protein (mHTT). The GENEAe020-A cell line was derived by Genea Biocells from human blastocysts of HD donors. After assessing viability, cells were plated into 384 well collagen coated plates in growth media. Once cells adhered, media was removed and test compounds dissolved in DMSO were diluted with buffer solution and added to the adherent cells. Controls included experiments with no cells, DMSO with no compound, and Hsp90 inhibitor control. Cells were incubated with compounds and controls for 48 hours. Then, the cells were lysed and transferred to an assay plate containing HTRF labeled monoclonal antibodies developed by Paul Patterson (Ko et al., Brain Research Bulletin, Volume 56, Numbers 3 and 4, 2001, Pages 319-329) which recognize specific areas of the HTT protein. The terbium labeled “donor” antibody (2B7) binds to the N-terminus of the HTT protein and the Alexa488 labeled “acceptor” antibody (MW1) is specific for the polyglutamine region of the protein. Binding of the acceptor labeled antibody is more efficient for the extended polyglutamine repeats of mutant HTT protein which translates into a signal boost which enables the specific measurement of mutant HTT protein level. The HTRF donor and acceptor detection reagents were incubated with the cell lysate and the ratio between the signals of the two fluorophores is indicative of the relative quantities of mHTT.
(In general: In TR-FRET formats the signal depends on donor and acceptor labels being close together.)

`COc1cc(-c2cc(=O)n3cc([C@@H]4CCNC[C@H]4F)sc3n2)nn2cc(C)nc12` [Example 45, 7-(8-methoxy-2-methyl-imidazo[1,2-b]pyridazin-6-yl)-2-[(3S,4R)-3-fluoro-4-piperidyl]thiazolo[3,2-a]pyrimidin-5-one] had an EC50 of 0.097 µM.

For `Cc1cn2nc(-c3cc(=O)n4cc(N5CC[C@H](N6CCCC6)C5)sc4n3)cc(C)c2n1` [Example 21, 7-(2,8-dimethylimidazo[1,2-b]pyridazin-6-yl)-2-[(3S)-3-pyrrolidin-1-ylpyrrolidin-1-yl]thiazolo[3,2-a]pyrimidin-5-one], the EC50 came out at 4.2 µM.

With `COc1cc(-c2cc(=O)n3cc(C4(F)CCNCC4)sc3n2)nn2cc(C)nc12` [Example 42, 2-(4-fluoro-4-piperidyl)-7-(8-methoxy-2-methyl-imidazo[1,2-b]pyridazin-6-yl)thiazolo[3,2-a]pyrimidin-5-one], the response was half-maximal at 0.053 µM (EC50).

`Cc1nc2c(C)cc(-c3cc(=O)n4cc([C@@H]5CCNC[C@@H]5F)sc4n3)nc2o1` [Example 44, 7-(2,7-dimethyloxazolo[5,4-b]pyridin-5-yl)-2-[(3R,4R)-3-fluoro-4-piperidyl]thiazolo[3,2-a]pyrimidin-5-one] registered an EC50 of 0.059 µM.

Turning to `COc1cc(-c2cc(=O)n3cc([C@H]4C[C@H]5CNC[C@@H](C4)O5)sc3n2)nn2cc(C)nc12` [Example 50, 7-(8-methoxy-2-methyl-imidazo[1,2-b]pyridazin-6-yl)-2-[rac-(1S,5R)-9-oxa-3-azabicyclo[3.3.1]nonan-7-yl]thiazolo[3,2-a]pyrimidin-5-one], the EC50 was 0.057 µM.

With `Cc1cn2nc(-c3cc(=O)n4cc(N5CCNCC5)sc4n3)cc(C(C)C)c2n1` [Example 23, 7-(8-isopropyl-2-methyl-imidazo[1,2-b]pyridazin-6-yl)-2-piperazin-1-yl-thiazolo[3,2-a]pyrimidin-5-one], the EC50 was 0.671 µM.

In turn, `Cc1cn2nc(-c3cc(=O)n4cc(C5=CCNCC5)sc4n3)cc(C)c2n1` [Example 2, 7-(2,8-dimethylimidazo[1,2-b]pyridazin-6-yl)-2-(1,2,3,6-tetrahydropyridin-4-yl)thiazolo[3,2-a]pyrimidin-5-one] showed an EC50 of 0.054 µM.

For the molecule `COc1cc(-c2cc(=O)n3cc([C@]4(F)CCNC[C@@H]4F)sc3n2)nn2cc(C)nc12` (racemic) [Example 52, 7-(8-methoxy-2-methyl-imidazo[1,2-b]pyridazin-6-yl)-2-[rac-(3S,4S)-3,4-difluoro-4-piperidyl]thiazolo[3,2-a]pyrimidin-5-one], the EC50 was 0.237 µM.

With `Cc1cn2nc(-c3cc(=O)n4cc(N5C6CCC5CNC6)sc4n3)cc(C)c2n1` [Example 14, 2-(3,8-diazabicyclo[3.2.1]octan-8-yl)-7-(2,8-dimethylimidazo[1,2-b]pyridazin-6-yl)thiazolo[3,2-a]pyrimidin-5-one], the EC50 came out at 0.931 µM.

`COc1cc(-c2cc(=O)n3cc([C@@H]4CCNC5(CC5)C4)sc3n2)nn2cc(C)nc12` [Example 41, 7-(8-methoxy-2-methyl-imidazo[1,2-b]pyridazin-6-yl)-2-[(7R)-4-azaspiro[2.5]octan-7-yl]thiazolo[3,2-a]pyrimidin-5-one]: the EC50 worked out at 0.106 µM.

As for `Cc1cn2nc(-c3cc(=O)n4cc([C@]5(F)CCNC[C@@H]5F)sc4n3)cc(C)c2n1` (racemic) [Example 54, 7-(2,8-dimethylimidazo[1,2-b]pyridazin-6-yl)-2-[rac-(3S,4S)-3,4-difluoro-4-piperidyl]thiazolo[3,2-a]pyrimidin-5-one], the response was half-maximal at 0.556 µM (EC50).

Consider `Cc1cn2nc(-c3cc(=O)n4cc([C@H]5CCNC[C@@H]5F)sc4n3)cc(C)c2n1` [Example 39, 7-(2,8-dimethylimidazo[1,2-b]pyridazin-6-yl)-2-[(3R,4S)-3-fluoro-4-piperidyl]thiazolo[3,2-a]pyrimidin-5-one], for which it took 0.053 µM to reach a half-maximal effect (EC50).

With `Cc1cn2nc(-c3cc(=O)n4cc(C5CCNCC5)sc4n3)cc(C)c2n1` [Example 24, 7-(2,8-dimethylimidazo[1,2-b]pyridazin-6-yl)-2-(4-piperidyl)thiazolo[3,2-a]pyrimidin-5-one], the EC50 turned out to be 0.028 µM.

Regarding `Cc1cn2nc(-c3cc(=O)n4cc(N5CCN[C@H](C)C5)sc4n3)cc(C)c2n1` [Example 7, 7-(2,8-dimethylimidazo[1,2-b]pyridazin-6-yl)-2-[(3R)-3-methylpiperazin-1-yl]thiazolo[3,2-a]pyrimidin-5-one], the 50% effective concentration (EC50) was 0.052 µM.

With `COc1cc(-c2cc(=O)n3cc([C@@]4(F)CCNC[C@@H]4F)sc3n2)nn2cc(C)nc12` [Example 59, 7-(8-methoxy-2-methyl-imidazo[1,2-b]pyridazin-6-yl)-2-[(3S,4R)-3,4-difluoro-4-piperidyl]thiazolo[3,2-a]pyrimidin-5-one], the response was half-maximal at 0.428 µM (EC50).

The molecule `C=C(C)c1cc(-c2cc(=O)n3cc(N4CCNCC4)sc3n2)nn2cc(C)nc12` [Example 19, 7-(8-isopropenyl-2-methyl-imidazo[1,2-b]pyridazin-6-yl)-2-piperazin-1-yl-thiazolo[3,2-a]pyrimidin-5-one] gave an EC50 of 3 µM.

`Cc1cn2nc(-c3cc(=O)n4cc([C@@H]5CCNC[C@H]5F)sc4n3)cc(C)c2n1` [Example 38, 7-(2,8-dimethylimidazo[1,2-b]pyridazin-6-yl)-2-[(3S,4R)-3-fluoro-4-piperidyl]thiazolo[3,2-a]pyrimidin-5-one]: the midpoint of the response, the EC50, lay at 0.28 µM.

In turn, `COc1cc(-c2cc(=O)n3cc([C@H]4C[C@H]5CNC[C@@H](C4)O5)sc3n2)nn2cc(C)nc12` [Example 49, 7-(8-methoxy-2-methyl-imidazo[1,2-b]pyridazin-6-yl)-2-[rac-(1R,5S)-9-oxa-3-azabicyclo[3.3.1]nonan-7-yl]thiazolo[3,2-a]pyrimidin-5-one] returned an EC50 of 0.2 µM.

Regarding `Cc1nc2c(C)cc(-c3cc(=O)n4cc(C5CCNCC5)sc4n3)nc2o1` [Example 30, 7-(2,7-dimethyloxazolo[5,4-b]pyridin-5-yl)-2-(4-piperidyl)thiazolo[3,2-a]pyrimidin-5-one], the EC50 was found to be 0.04 µM.

The molecule `Cc1cn2nc(-c3cc(=O)n4cc(N5CCN6CCC[C@@H]6C5)sc4n3)cc(C)c2n1` [Example 15, 7-(2,8-dimethylimidazo[1,2-b]pyridazin-6-yl)-2-[(8aR)-3,4,6,7,8,8a-hexahydro-1H-pyrrolo[1,2-a]pyrazin-2-yl]thiazolo[3,2-a]pyrimidin-5-one] returned an EC50 of 0.123 µM.

On to `Cc1cn2nc(-c3cc(=O)n4cc([C@H]5C[C@H]6CNC[C@@H](C5)O6)sc4n3)cc(C)c2n1` [Example 48, 7-(2,8-dimethylimidazo[1,2-b]pyridazin-6-yl)-2-[rac-(1S,5R)-9-oxa-3-azabicyclo[3.3.1]nonan-7-yl]thiazolo[3,2-a]pyrimidin-5-one], for which the EC50 came to 0.092 µM.

Take `Cc1cn2nc(-c3cc(=O)n4cc([C@H]5C[C@H]6CNC[C@@H](C5)O6)sc4n3)cc(C)c2n1` [Example 47, 7-(2,8-dimethylimidazo[1,2-b]pyridazin-6-yl)-2-[rac-(1R,5S)-9-oxa-3-azabicyclo[3.3.1]nonan-7-yl]thiazolo[3,2-a]pyrimidin-5-one]: a half-maximal effect (EC50) was put at 0.33 µM.

Molecule `COc1cc(-c2cc(=O)n3cc(C4CCNCC4)sc3n2)nn2cc(C)nc12` [Example 29, 7-(8-methoxy-2-methyl-imidazo[1,2-b]pyridazin-6-yl)-2-(4-piperidyl)thiazolo[3,2-a]pyrimidin-5-one] returned an EC50 of 0.035 µM.

`Cc1cn2nc(-c3cc(=O)n4cc([C@@H]5CCNC[C@@H]5F)sc4n3)cc(C)c2n1` [Example 32, 7-(2,8-dimethylimidazo[1,2-b]pyridazin-6-yl)-2-[(3R,4R)-3-fluoro-4-piperidyl]thiazolo[3,2-a]pyrimidin-5-one] gave an EC50 of 0.033 µM.

Molecule `COc1cc(-c2cc(=O)n3cc([C@@H]4CCNC[C@@H]4F)sc3n2)nn2cc(C)nc12` [Example 34, 7-(8-methoxy-2-methyl-imidazo[1,2-b]pyridazin-6-yl)-2-[(3R,4R)-3-fluoro-4-piperidyl]thiazolo[3,2-a]pyrimidin-5-one] gave an EC50 of 0.022 µM.

The molecule `COc1cc(-c2cc(=O)n3cc([C@H]4CCNC5(CC5)C4)sc3n2)nn2cc(C)nc12` [Example 40, 7-(8-methoxy-2-methyl-imidazo[1,2-b]pyridazin-6-yl)-2-[(7S)-4-azaspiro[2.5]octan-7-yl]thiazolo[3,2-a]pyrimidin-5-one] yielded an EC50 of 0.083 µM.

`Cc1cn2nc(-c3cc(=O)n4cc(N5CCNCC5)sc4n3)cc(OC(F)F)c2n1` [Example 27, 7-[8-(difluoromethoxy)-2-methyl-imidazo[1,2-b]pyridazin-6-yl]-2-piperazin-1-yl-thiazolo[3,2-a]pyrimidin-5-one] came in with an EC50 of 0.068 µM.

Take `Cc1cn2nc(-c3cc(=O)n4cc([C@H]5CCNC[C@H]5F)sc4n3)cc(C)c2n1` [Example 33, 7-(2,8-dimethylimidazo[1,2-b]pyridazin-6-yl)-2-[(3S,4S)-3-fluoro-4-piperidyl]thiazolo[3,2-a]pyrimidin-5-one]: a half-maximal response (EC50) required 0.086 µM.

Usually EC50 stands for the concentration that produces a half-maximal response. Low readings indicate greater potency, high ones weaker potency.
